Data as given in ChEMBL document CHEMBL4000182, “Structure-activity relationships of benzothiazole GPR35 antagonists” (Bioorg Med Chem Lett, 2017).

Columns and labels:
[1] = target: T1, G-protein coupled receptor 35 (Homo sapiens, UniProt Q9HC97); assay: Antagonist activity at HA tagged GPR35a (unknown origin) expressed in human U2OS cells co-expressing GFP-fused beta arrestin-2 assessed as inhibition of zaprinast induced effect; type: cell-based
[2] = target: T1, G-protein coupled receptor 35; assay: Antagonist activity at human N-terminal HA-tagged GPR35a expressed in human U2OS cells co-expressing GFP-fused beta arrestin-2 assessed as inhibition of agonist induced redistribution of GFP-fused beta arrestin-2 preincubated for 15 mins followed by agonist addition by fluorescence assay; type: cell-based
[3] = target: T1, G-protein coupled receptor 35; assay: Antagonist activity at GPR35 (unknown origin)

T1 sequence (Q9HC97 whole entry, the tested form may be a part): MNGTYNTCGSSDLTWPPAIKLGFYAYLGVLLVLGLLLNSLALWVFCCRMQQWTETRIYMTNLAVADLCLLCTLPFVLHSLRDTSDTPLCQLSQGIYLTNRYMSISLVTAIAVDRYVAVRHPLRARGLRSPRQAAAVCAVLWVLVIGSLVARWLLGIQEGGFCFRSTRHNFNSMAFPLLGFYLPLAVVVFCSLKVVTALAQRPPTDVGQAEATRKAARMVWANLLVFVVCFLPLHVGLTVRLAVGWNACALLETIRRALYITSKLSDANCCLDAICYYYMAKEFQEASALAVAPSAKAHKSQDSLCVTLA

Compound	IC50 [1] [µM]	EC50 [2] [µM]	IC50 [3] [µM]
O=C(Nc1ccc2nc(SCc3ccc(Cl)cc3)sc2c1)c1ccccc1C(=O)N1CCCCC1	> 30		
O=C(Nc1ccc2nc(SCc3ccc(Cl)cc3)[nH]c2c1)c1ccccc1C(=O)N1CCOCC1	> 30		
O=C(Nc1ccc2nc([S@+]([O-])Cc3ccc(Cl)cc3)sc2c1)c1ccccc1C(=O)N1CCOCC1	> 30		
O=C(Nc1ccc2nc(SCc3ccncc3)sc2c1)c1ccccc1C(=O)N1CCOCC1	> 30		
O=C(O)c1cc(=O)c2ccccc2[nH]1 [TRANSTORINE]			39

The remaining lines, values ahead:

IC50 [1] [µM]	EC50 [2] [µM]	IC50 [3] [µM]	Compound
5.24			O=C(Nc1ccc2nc(S(=O)(=O)Cc3ccc(Cl)cc3)sc2c1)c1ccccc1C(=O)N1CCOCC1
4.56	0.55		O=C(Nc1ccc2nc(SCc3ccc(Cl)cc3)sc2c1)c1ccccc1C(=O)N1CCOCC1
> 30			O=C(Nc1ccc2nc(SCc3ccc(Cl)cc3)sc2c1)c1ccccc1C(=O)N1CCCC1
> 30			O=C(Nc1ccc2nc([S@@+]([O-])Cc3ccc(Cl)cc3)sc2c1)c1ccccc1C(=O)N1CCOCC1
7.23			O=C(Nc1ccc2nc(SCc3ccccc3)sc2c1)c1ccccc1C(=O)N1CCOCC1
13			O=C(Nc1ccc2nc([S+]([O-])Cc3ccc(Cl)cc3)sc2c1)c1ccccc1C(=O)N1CCOCC1 (stereo not drawn)
17			CC(Sc1nc2ccc(NC(=O)c3ccccc3C(=O)N3CCOCC3)cc2s1)c1ccc(Cl)cc1 (stereo not drawn)
